In article PMC6479099, “Aminoguanidines: New leads for treatment of Giardia duodenalis infection” (International Journal for Parasitology: Drugs and Drug …, 2019):
Entries after “also recorded” stand apart in the source; their conditions may differ.

Key:
bacteria = assay: Off-target antibacterial effects; format: cell-based
[1] = tested on: Giardia BAH2c2 trophozoites; assay: Electron microscopy (TEM, SEM) of trophozoites; format: cell-based, Giardia duodenalis
Experimental: To determine any effects robenidine has on the ultrastructure of Giardia trophozoites, transmission electron microscopy (TEM) was performed. Giardia BAH2c2 trophozoites were exposed to 3 X IC50 of robenidine or metronidazole for 1 h and placed on ice for 40 min to detach trophozoites then washed twice with PBS (900×g, 10 min 4 °C) and fixed with a combination of glutaraldehyde and formaldehyde overnight. Cells were washed with PBS +4% sucrose before fixation with osmium tetroxide for 1 h. Samples were dehydrated through a graded ethanol series (70–100%) followed by suspension in propylene oxide for ten minutes. Samples were centrifuged and suspended in 1:1 mixture of propylene oxide and epoxy resin for an hour before centrifugation. Following overnight suspension in 100% epoxy resin samples were resuspended in fresh resin and polymerized at 70 °C for 24 h. After sectioning samples were stained with uranyl acetate and lead citrate. Sections were imaged with a FEI tecnai G2 Spirit Transmission Electron microscope (Adelaide Microscopy, University of Adelaide).
To determine the effect that robenidine and metronidazole has on the cell surface of the Giardia trophozoites, scanning electron microscopy (SEM) was performed as follows. Giardia BAH2c2 trophozoites were prepared as for TEM, however they were exposed to compounds for 2 or 4 h. […]

Giardia trophozoites = assay: Morphology of stained trophozoites at 100x magnification; format: cell-based, Giardia duodenalis; conditions: at IC50, 100 x magnification
Experimental: (§1) A second screening method, based on counting adherent trophozoites, was developed and used to validate the primary screen method, modified from earlier adherence assay protocols ([Crouch et al., 1986]). The assay was prepared in 24 well plates with plastic coverslips placed in the bottom. Trophozoites were prepared as above by placing on ice and ∼5 × 10^5 cells/mL were added to each well. Drugs prepared in DMSO were added at the required concentration, with the DMSO concentration never exceeding 1%. Assay plates were incubated for 5 h at 37 °C under anaerobic conditions, the media removed and cells adhering to the coverslips were fixed with glutaraldehyde or methanol. Once the coverslips were dry, cells were stained with a Romanowsky stain variant (Rapid stain), fixed to a glass slide and imaged at 10x or 100x magnification. Images (10x magnification) were processed with DotCount v1.2 software (http://reuter.mit.edu/, 2008–2012 ^© Martin Reuter) to count the number of cells present and data analysed using GraphPad Prism version 6.00 for Windows, GraphPad Software, La Jolla California USA, www.graphpad.com. Images (100x magnification) were assessed for obvious morphological changes.
Fig. 4 Morphological effect of Robenidine and NCL 099 on Giardia trophozoites. Giardia trophozoites were exposed to each compound for 24 h before fixation with glutaraldehyde and staining following the Diff quik protocol. A-control cells, B – cells treated with metronidazole (IC50, 2 μM), C- robendine treated cells (IC50, 2 μM), D – NCL 099 treated cells (IC50, 3 μM), E − NCL 099 treated cells (2 x IC50).

[2] = In vitro cytotoxicity (WST-1), human lung fibroblast; format: cell-based; conditions: HEL 299 human lung fibroblast cells, 24 h exposure
Experimental: (§2) Cells were passaged every 3 days. Assays were performed in 96 well plates in duplicate. Wells were seeded with 50 000 cells.

[3] = tested on: Giardia duodenalis trophozoites; assay: Modified adherence assay; format: cell-based; conditions: 4 μM, 5 h exposure
Experimental: as §1
The results for the in vitro drug efficacy studies were analysed using GraphPad Prism version 6.00 for Windows, GraphPad Software, La Jolla California USA, www.graphpad.com. For the resazurin reduction assay the mean and standard error of the mean were determined with each assay completed in triplicate. The IC50 was calculated using the log (inhibitor) vs. normalised response – variable slope function in Graphpad Prism. For the adherence assay mean and standard error of the mean were calculated and data analysed using an unpaired t-test, relative to untreated control.
Fig. 3 Inhibition of adherence of Giardia duodenalis by metronidazole (Mz), robenidine, NCL 062 and NCL 099. Cells were exposed to the compounds for 5 h before staining. Stained cells were imaged at 10x magnification and counted using DotCount™ software. Each assay was completed in triplicate and 5 images taken per sample. Top. Number of adherent trophozoites after exposure to 4 μM of each compound for 5 h; Bottom. An example of the Dotcount software identifying trophozoites at higher magnification. Left: stained trophozoites, Right: highlighted trophozoites identified by the Dotcount software. Each highlighted cell is counted individually. Error ± SEM. * p-value <0.05, ** p-value <0.0001.

[4] = In vitro cytotoxicity (WST-1), human hepatocellular carcinoma; format: cell-based; conditions: Hep G2 human hepatocellular carcinoma cells, 24 h exposure
Experimental: as §2

[5] = In vitro cytotoxicity, murine macrophage cells; conditions: mouse

N=C(N/N=C/c1ccc(Cl)cc1)N/N=C/c1ccc(Cl)cc1 [Robenidine, robenidine]
Off-target antibacterial effects (bacteria): off-target antibacterial effects
Ultrastructural changes by TEM ([1]; 3 x IC50, 1 h exposure): extreme membrane blebbing
Cell surface changes by SEM ([1]; 3 x IC50, 2 h exposure): extreme membrane blebbing
Morphological effect on stained trophozoites at the IC50 (Giardia trophozoites): decrease in the intensity of the membrane stain; also recorded: enlarged nuclei
GI50 at 24 h [2]: 17.7 µM
Effect on adherence of trophozoites [3]: complete inhibition of adherence
GI50 at 24 h [4]: 25.5 µM
GI50 [5]: 17.1 µM
